The text below walks through data of PMC11705955, “Lack of activity of HIV-1 integrase strand-transfer inhibitors on recombinase activating gene (RAG) activity at clinically relevant concentrations” (Microbiology Spectrum, 2024).

The test system of data set [1] is murine mCherry-core RAG1 / mCherry-RAG2 V(D)J recombination in Expi293F cells. The data set can be described thus: Extrachromosomal cell-based V(D)J recombination assay (GFP reporter, flow cytometry). From the text: To further evaluate the effect of HIV-1 integrase inhibitors on RAG activity in a cellular context, we optimized a novel extrachromosomal cell-based V(D)J recombination assay, enabling assessment of multiple compounds in a dose–response manner by flow cytometry ([33]). The schematic of FL murine RAG1 and RAG2 proteins, including the active site residues (DDE motif) in RAG1 and catalytically essential core regions of each protein, are shown in Fig. 5A. The cell-based assay used vectors that encode for the core RAG1 protein (instead of the FL version) and FL murine RAG2 expressed as C-terminal fusions to mCherry, termed mCherry-core RAG1 and mCherry-RAG2. The core regions of each RAG protein are sufficient to catalyze V(D)J recombination, whereas the non-core regions function to regulate the recombination reaction ([13]). […] The consensus RSS used in this assay contains a conserved heptamer and nonamer separated by 12 or 23 non-conserved bp (12RSS and 23RSS) (Fig. 5B). A general schematic of the design for the plasmid substrate with the 12RSS and 23RSS orientations before and after V(D)J recombination is presented in Fig. 5C. More specifically, the plasmid substrate pMAXgfp-INV was designed with a 12RSS and a 23RSS flanking each side of the Pontellina plumata green fluorescent protein gene (termed maxGFP), where the gene is in an inverted orientation relative to the CMV promoter (Fig. 5D). The RSSs are positioned in a co-linear orientation, such that successful V(D)J recombination activity will result in inversion of the maxGFP gene to place it in a transcriptionally active orientation with resulting expression of GFP. Detection of GFP-expressing cells using microscopy and flow cytometry was used as a direct readout of V(D)J recombination activity.
For the recombination assay, the pMAXgfp-INV plasmid substrate and RAG1/RAG2 expression vectors (mCherry-core RAG1 and mCherry-RAG2) were transiently transfected into Expi293 cells in the absence or presence of integrase inhibitors and were assessed via microscopy and flow cytometry. The fluorescence signal from the mCherry-tag is used to assess transfection efficiency of RAG1/RAG2 vectors (Fig. 6A). We observed that transfection of the pMAXgfp-INV substrate into Expi293 cells with RAG1/RAG2 expression vectors yielded robust GFP expression 48 h post-transfection in the cells treated with vehicle control (0.1% dimethyl sulfoxide [DMSO]) (Fig. 6A). […] NU7026 inhibits double-strand break repair, which is a necessary step after DNA cleavage by RAG enzymes, and thus serves as an indirect inhibitor of RAG activity ([35]).
To test the effect of HIV-1 integrase inhibitors on V(D)J recombination activity, we optimized an extrachromosomal cell-based V(D)J recombination assay ([33]). Briefly, Expi293 cells were plated at 1 × 10^6 cells/mL in six-well plates in Gibco Expi293 expression media the day before transfection. The next day, the Expi293 cells were co-transfected with three separate vectors, pMAXgfp-INV plasmid substrate, mCherry-core RAG1, and mCherry-RAG2 expression vectors with a 4:1 transfection reagent:DNA ratio using ExpiFectamine 293 transfection reagent (Gibco). Vehicle or candidate inhibitors were added to cell samples 2 h after transfection, with six different concentrations of each inhibitor added to separate wells. Fivefold dilutions for each inhibitor starting from 10 µM were tested.
Experiments were performed with six separate inhibitors in at least three independent experiments. Two negative control conditions for recombination activity were performed in parallel and include (i) transfections in the presence of NU7026 at 30 and 50 µM (Abcam) and (ii) using a modified pMAXgfp-INV substrate containing two 12RSSs (instead of one 12RSS and one 23RSS) that is inefficiently recombined by the RAG proteins. Vehicle control (0.1% DMSO) served as the positive control for GFP expression. The fluorescence signal from the mCherry tag was used to assess transfection efficiency. […]
(In general: In flow cytometry, cells or beads pass a laser one at a time.)

Data set [2] in a line: 5-day cytotoxicity assay with Cell Titer Glo readout, GALPC3. It counts as cell-based. The following applies: human. From the text: (§1) Supplemental Table S2. CC50 values for INSTIs in 5- day cytotoxicity as says with Cell Titer
(§2) Expi293F GALPC3 GALHEP HUH7 MRC5 MT4 PBMC PBMC
(§3) Kidney Prostate Hepatoma Hepatoma Lung T-cell line Primary Primary
(§4) (embryonic) cancer cell cell line cell line fibroblast cells
On the technique in general: Cellular ATP, detected with luciferase, serves as a proxy for viable cell number.

Data set [3] can be described thus: 5-day cytotoxicity assay with Cell Titer Glo readout, MT4. It counts as cell-based. The conditions noted are these: human.
Source text: as §1, §2, §3, §4

Data set [4] can be described thus: 5-day cytotoxicity assay with Cell Titer Glo readout, PBMC. It counts as cell-based. The conditions noted are these: CC50.
Source text: as §1, §2, §3, §4

The next data set concerns PBMC primary cells. Described as above. Type of data set: cell-based. The following applies: 5 day.
Source text: as §1, §2, §3, §4

Data set [5] in a line: 5-day cytotoxicity assay with Cell Titer Glo readout, GALHEPG2. Type of data set: cell-based. The conditions noted are these: human.
Source text: as §1, §2, §3, §4

A short description of data set [6]: 5-day cytotoxicity assay with Cell Titer Glo readout, HUH7. Type of data set: cell-based. The following applies: human.
Source text: as §1, §2, §3, §4

A short description of data set [7]: 5-day cytotoxicity assay with Cell Titer Glo readout, MRC5. The following applies: human. It counts as cell-based.
Source text: as §1, §2, §3, §4

`O=c1cc(N2CCOCC2)oc2c1ccc1ccccc12` [NU7026]: the “Effect on percentage of GFP-positive cells / RAG recombination” value in data set [1] (across concentrations tested, 48 h post-transfection) is recorded as “dose-dependent decrease in percentage of GFP-positive cells”. In addition, the IC50 in data set [1] (compound added 2 h after transfection, read 48 h post-transfection, serum-free media, read-out: IC50 in cellular V(D)J recombination assay (% GFP-positive cells)) came to 41500 ± 9400 nM.
In the case of `COc1ccc(C[C@H](N)C(=O)N[C@H]2[C@@H](O)[C@H](n3cnc4c(N(C)C)ncnc43)O[C@@H]2CO)cc1` [Puromycin], the CC50 at 5 day in data set [2] was found to be 390 nM; in data set [3], 210 nM; in data set [4], 540 nM; in data set [5] it was 410 nM; in data set [6] it was 320 nM; in data set [7], 310 nM. Also, it took 500 nM to reach half-maximal cytotoxicity in the data set on PBMC primary cells (CC50).

For orientation: IC50 means the concentration that inhibits the measured activity by half. By CC50 is commonly meant the concentration at which the toxic effect on the cells reaches its halfway point. A low value points to harm at low concentration.
